Reference: patent US6825172B2, “3-descladinosyl-6-O-carbamoyl and 6-O-carbonoyl macrolide antibacterial agents” (Janssen Pharmaceutica, NV, priority 2002, dated 2004)
Converted amounts (≈) assume the structure as drawn. Like-named read-outs stand apart in the source and are kept apart here.

Legend:
Assay in all cases: MIC, microdilution broth method (NCCLS)
Assay type in all cases: cell-based
[1] = test system: S. aureus ATCC29213; conditions: Staphylococcus aureus, read-out: MIC Values, B: S. aureus ATCC29213
Experimental: (§1) Minimal inhibitory concentration (MIC) has been an indicator of in vitro antibacterial activity widely used in the art. The in vitro antimicrobial activity of the compounds was determined by the microdilution broth method following the test method from the National Committee for Clinical Laboratory Standards (NCCLS). This method is described in the NCCLS Document M7-A4, Vol.17, No.2, “Methods for Dilution Antimicrobial Susceptibility Test for Bacteria that Grow Aerobically—Fourth Edition”, which is incorporated herein by reference.
(§2) In this method two-fold serial dilutions of drug in cation adjusted Mueller-Hinton broth are added to wells in microdilution trays. The test organisms are prepared by adjusting the turbidity of actively growing broth cultures so that the final concentration of test organism after it is added to the wells is approximately 5×10^4 CFU/well.
(§3) Following inoculation of the microdilution trays, the trays are incubated at 35 °C for 16-20 hours and then read. […] The amount of growth in the wells containing the test compound is compared with the amount of growth in the growth-control wells (no test compound) used in each tray. As set forth in Table 1, compounds of the present invention were tested against a variety of Gram positive and Gram negative pathogenic bacteria resulting in a range of activities depending on the organism tested.

[2] = test system: H. influenzae ATCC49247; conditions: Haemophilus influenzae, Table 1, 6-Carbamoyl-3-Acyl Macrolide Derivatives, read-out: MIC Values, E: H. influenzae ATCC49247
Experimental: as §1, §2, §3

[3] = test system: E. faecalis ATCC29212; conditions: Enterococcus faecalis, read-out: MIC Values, C: E. faecalis ATCC29212
Experimental: as §1, §2, §3

[4] = test system: E. coli OC2605; conditions: Escherichia coli, Table 1, 6-Carbamoyl-3-Acyl Macrolide Derivatives, read-out: MIC Values, A: E. coli OC2605
Experimental: as §1, §2, §3

[5] = test system: S. pneumoniae ATCC49619; conditions: Streptococcus pneumoniae, read-out: MIC Values, D: S. pneumoniae ATCC49619
Experimental: as §1, §2, §3

[6] = Table 1, 6-Carbamoyl-3-Acyl Macrolide Derivatives
[7] = Table 3, 6-Carbonate Macrolide Derivatives

MIC [1, 6] [µg/mL] | MIC [2] [µg/mL] | MIC [3, 6] [µg/mL] | MIC [4] [µg/mL] | MIC [5, 6] [µg/mL] | MIC [1, 7] [µg/mL] | MIC [3, 7] [µg/mL] | MIC [5, 7] [µg/mL] | SMILES
0.5 (≈ 0.551 µM) | 1 (≈ 1.1 µM) | 0.25 (≈ 0.275 µM) | 16 (≈ 17.6 µM) | 0.06 (≈ 0.0661 µM) |  |  |  | CC[C@H]1OC(=O)[C@H](C)[C@@H](OC(=O)C(C)C)[C@H](C)[C@@H](O[C@@H]2O[C@H](C)C[C@H](N(C)C)[C@H]2O)[C@](C)(OC(=O)NC/C=C/c2ccc(-c3ncccn3)cc2)C[C@@H](C)C(=O)[C@H](C)[C@H]2NC(=O)O[C@@]21C [Compound 1, Propanoic acid, 2-methyl-, (3aS,4R,7R,8S,9S,10R, 11R,13R,15R,15aR)-4-ethyltetradecahydro-3a,7,9,11,13,15-hexamethyl-2,6,14-trioxo-11-[[[[(2E)-3-[4-(2-pyrimidinyl)phenyl]-2-propenyl]amino]carbonyl]oxy]-10-[[3,4,6-trideoxy-3-(dimethylamino)-β-D-xylo-hexopyranosyl]oxy]-2H-oxacyclotetradecino[4,3-d]oxazol-8-yl ester]
0.5 (≈ 0.522 µM) | 1 (≈ 1.04 µM) | 0.25 (≈ 0.261 µM) | 16 (≈ 16.7 µM) |  |  |  |  | CC[C@H]1OC(=O)[C@H](C)[C@@H](OC(=O)Cc2ccccn2)[C@H](C)[C@@H](O[C@@H]2O[C@H](C)C[C@H](N(C)C)[C@H]2O)[C@](C)(OC(=O)NC/C=C/c2ccc(-c3ncccn3)cc2)C[C@@H](C)C(=O)[C@H](C)[C@H]2NC(=O)O[C@@]21C [Compound 2]
0.5 (≈ 0.515 µM) | 2 (≈ 2.06 µM) | 0.25 (≈ 0.257 µM) | > 16 | 0.06 (≈ 0.0618 µM) |  |  |  | CC[C@H]1OC(=O)[C@H](C)[C@@H](OC(=O)CCc2cccnc2)[C@H](C)[C@@H](O[C@@H]2O[C@H](C)C[C@H](N(C)C)[C@H]2O)[C@](C)(OC(=O)NC/C=C/c2ccc(-c3ncccn3)cc2)C[C@@H](C)C(=O)[C@H](C)[C@H]2NC(=O)O[C@@]21C [Compound 3]
0.25 (≈ 0.261 µM) | 2 (≈ 2.09 µM) | 0.25 (≈ 0.261 µM) | 8 (≈ 8.36 µM) | 0.06 (≈ 0.0627 µM) |  |  |  | CC[C@H]1OC(=O)[C@H](C)[C@@H](OC(=O)Cc2cccnc2)[C@H](C)[C@@H](O[C@@H]2O[C@H](C)C[C@H](N(C)C)[C@H]2O)[C@](C)(OC(=O)NC/C=C/c2ccc(-c3ncccn3)cc2)C[C@@H](C)C(=O)[C@H](C)[C@H]2NC(=O)O[C@@]21C [Compound 4, 3-Pyridineacetic acid, (3aS,4R,7R,8S,9S,10R,11R,13R,15R,15aR)-4-ethyltetradecahydro-3a,7,9,11,13,15-hexamethyl-2,6,14-trioxo-11-[[[[(2E)-3-[4-(2-pyrimidinyl)phenyl]-2-propenyl]amino]carbonyl]oxy]-10-[[3,4,6-trideoxy-3-(dimethylamino)-β-D-xylo-hexopyranosyl]oxy]-2H-oxacyclotetradecino[4,3-d]oxazol-8-yl ester]
0.5 (≈ 0.53 µM) | 8 (≈ 8.47 µM) | 0.5 (≈ 0.53 µM) | > 16 | 0.06 (≈ 0.0636 µM) |  |  |  | CC[C@H]1OC(=O)[C@H](C)[C@@H](OC(=O)c2cnccn2)[C@H](C)[C@@H](O[C@@H]2O[C@H](C)C[C@H](N(C)C)[C@H]2O)[C@](C)(OC(=O)NC/C=C/c2ccc(-c3ncccn3)cc2)C[C@@H](C)C(=O)[C@H](C)[C@H]2NC(=O)O[C@@]21C [Compound 5]
2 (≈ 2.06 µM) | > 16 | 1 (≈ 1.03 µM) | > 16 | 0.12 (≈ 0.124 µM) |  |  |  | CC[C@H]1OC(=O)[C@H](C)[C@@H](OC(=O)/C=C/c2cccnc2)[C@H](C)[C@@H](O[C@@H]2O[C@H](C)C[C@H](N(C)C)[C@H]2O)[C@](C)(OC(=O)NC/C=C/c2ccc(-c3ncccn3)cc2)C[C@@H](C)C(=O)[C@H](C)[C@H]2NC(=O)O[C@@]21C [Compound 6]
1 (≈ 1.06 µM) | 8 (≈ 8.48 µM) | 0.5 (≈ 0.53 µM) | > 16 | 0.06 (≈ 0.0636 µM) |  |  |  | CC[C@H]1OC(=O)[C@H](C)[C@@H](OC(=O)c2cccnc2)[C@H](C)[C@@H](O[C@@H]2O[C@H](C)C[C@H](N(C)C)[C@H]2O)[C@](C)(OC(=O)NC/C=C/c2ccc(-c3ncccn3)cc2)C[C@@H](C)C(=O)[C@H](C)[C@H]2NC(=O)O[C@@]21C [Compound 7]
0.5 (≈ 0.522 µM) | 2 (≈ 2.09 µM) | 0.25 (≈ 0.261 µM) | 16 (≈ 16.7 µM) | 0.06 (≈ 0.0627 µM) |  |  |  | CC[C@H]1OC(=O)[C@H](C)[C@@H](OC(=O)Cc2ccncc2)[C@H](C)[C@@H](O[C@@H]2O[C@H](C)C[C@H](N(C)C)[C@H]2O)[C@](C)(OC(=O)NC/C=C/c2ccc(-c3ncccn3)cc2)C[C@@H](C)C(=O)[C@H](C)[C@H]2NC(=O)O[C@@]21C [Compound 8]
2 (≈ 2.03 µM) | 8 (≈ 8.1 µM) | 1 (≈ 1.01 µM) | > 16 | 0.12 (≈ 0.122 µM) |  |  |  | CC[C@H]1OC(=O)[C@H](C)[C@@H](OC(=O)c2ccc([N+](=O)[O-])cc2)[C@H](C)[C@@H](O[C@@H]2O[C@H](C)C[C@H](N(C)C)[C@H]2O)[C@](C)(OC(=O)NC/C=C/c2ccc(-c3ncccn3)cc2)C[C@@H](C)C(=O)[C@H](C)[C@H]2NC(=O)O[C@@]21C [Compound 10]
2 (≈ 1.98 µM) | 8 (≈ 7.93 µM) | 2 (≈ 1.98 µM) | > 16 | 0.25 (≈ 0.248 µM) |  |  |  | CC[C@H]1OC(=O)[C@H](C)[C@@H](OC(=O)Cc2cn(C)c3ccccc23)[C@H](C)[C@@H](O[C@@H]2O[C@H](C)C[C@H](N(C)C)[C@H]2O)[C@](C)(OC(=O)NC/C=C/c2ccc(-c3ncccn3)cc2)C[C@@H](C)C(=O)[C@H](C)[C@H]2NC(=O)O[C@@]21C [Compound 11]
1 (≈ 1.14 µM) | 8 (≈ 9.09 µM) | 0.25 (≈ 0.284 µM) | > 16 | 0.06 (≈ 0.0682 µM) |  |  |  | CC[C@H]1OC(=O)[C@H](C)[C@@H](OC(C)=O)[C@H](C)[C@@H](O[C@@H]2O[C@H](C)C[C@H](N(C)C)[C@H]2O)[C@](C)(OC(=O)NC/C=C/c2ccc(-c3ncccn3)cc2)C[C@@H](C)C(=O)[C@H](C)[C@H]2NC(=O)O[C@@]21C [Compound 12]
0.5 (≈ 0.543 µM) | 8 (≈ 8.69 µM) | 0.5 (≈ 0.543 µM) | > 16 | 0.06 (≈ 0.0652 µM) |  |  |  | CC[C@H]1OC(=O)[C@H](C)[C@@H](OC(=O)CC2CC2)[C@H](C)[C@@H](O[C@@H]2O[C@H](C)C[C@H](N(C)C)[C@H]2O)[C@](C)(OC(=O)NC/C=C/c2ccc(-c3ncccn3)cc2)C[C@@H](C)C(=O)[C@H](C)[C@H]2NC(=O)O[C@@]21C [Compound 13]
0.25 (≈ 0.28 µM) | 4 (≈ 4.47 µM) | 0.25 (≈ 0.28 µM) | 16 (≈ 17.9 µM) | 0.06 (≈ 0.0671 µM) |  |  |  | CCC(=O)O[C@H]1[C@H](C)[C@@H](O[C@@H]2O[C@H](C)C[C@H](N(C)C)[C@H]2O)[C@](C)(OC(=O)NC/C=C/c2ccc(-c3ncccn3)cc2)C[C@@H](C)C(=O)[C@H](C)[C@H]2NC(=O)O[C@]2(C)[C@@H](CC)OC(=O)[C@@H]1C [Compound 14]
0.5 (≈ 0.542 µM) | 4 (≈ 4.34 µM) | 0.5 (≈ 0.542 µM) | > 16 | 0.06 (≈ 0.0651 µM) |  |  |  | CC[C@H](C)C(=O)O[C@H]1[C@H](C)[C@@H](O[C@@H]2O[C@H](C)C[C@H](N(C)C)[C@H]2O)[C@](C)(OC(=O)NC/C=C/c2ccc(-c3ncccn3)cc2)C[C@@H](C)C(=O)[C@H](C)[C@H]2NC(=O)O[C@]2(C)[C@@H](CC)OC(=O)[C@@H]1C [Compound 15]
 |  |  |  |  | 1 (≈ 1.07 µM) | 0.5 (≈ 0.533 µM) | 0.06 (≈ 0.064 µM) | CC[C@H]1OC(=O)[C@H](C)[C@@H](OC(=O)N(CC)CC)[C@H](C)[C@@H](O[C@@H]2O[C@H](C)C[C@H](N(C)C)[C@H]2O)[C@](C)(OC(=O)OC/C=C/c2ccc(-c3cccnn3)cc2)C[C@@H](C)C(=O)[C@H](C)[C@H]2NC(=O)O[C@@]21C [Compound 83, Carbonic acid, (3aS,4R,7R,8S,9S,10R,11R,13R,15R,15aR)-8-[[(diethylamino)carbonyl]oxy]-4-ethyltetradecahydro-3a,7,9,11,13,15-hexamethyl-2,6,14-trioxo-10-[[3,4,6-trideoxy-3-(dimethylamino)-β-D-xylo-hexopyranosyl]oxy]-2H-oxacyclotetradecino[4,3-d]oxazol-11-yl(2E)-3-[4-(3-pyridazinyl)phenyl]-2-propenyl ester]
 |  |  |  |  | 0.5 (≈ 0.533 µM) | 0.5 (≈ 0.533 µM) | 0.03 (≈ 0.032 µM) | CC[C@H]1OC(=O)[C@H](C)[C@@H](OC(=O)N(CC)CC)[C@H](C)[C@@H](O[C@@H]2O[C@H](C)C[C@H](N(C)C)[C@H]2O)[C@](C)(OC(=O)OC/C=C/c2ccc(-c3cnccn3)cc2)C[C@@H](C)C(=O)[C@H](C)[C@H]2NC(=O)O[C@@]21C [Compound 85]
 |  |  |  |  | 1 (≈ 1.13 µM) | 0.5 (≈ 0.567 µM) | 0.06 (≈ 0.068 µM) | CC[C@H]1OC(=O)[C@H](C)[C@@H](OC(=O)C(C)C)[C@H](C)[C@@H](O[C@@H]2O[C@H](C)C[C@H](N(C)C)[C@H]2O)[C@](C)(OC(=O)OC/C=C/c2cnc3ccccc3c2)C[C@@H](C)C(=O)[C@H](C)[C@H]2NC(=O)O[C@@]21C [Compound 86]
